From US9067977B2, “Peptides derivatized with A-B-C-D- and their therapeutical use” (Novo Nordisk A/S, priority 2007, dated 2015)
Starred links: 1 amine or outer side, 2 acyl side, 3 side chain; linkers in the order of their positions; H or OH if unused. Residues, ends and D or L forms follow the SMILES beside them. Groups on a side chain read outwards from the residue. *: point of attachment. X1 = O=C(CCCCCCCCCCCCCCCc1nnn[nH]1)NS(=O)(=O)CCCC(=O)*; γGlu = O=C(O)[C@H](CCC(=O)[*:2])N[*:1]; Desaminohistidyl = O=C(CCc1c[nH]cn1)*; 12Ado = NCCCCCCCCCCCC(=O)O; AEEA = NCCOCCOCC(=O)O

Biological target: human serum albumin (HSA) (Homo sapiens, UniProt P02768)
Experiment: Albumin binding affinity, competition scintillation proximity assay
Procedure: Streptavidin-SPA beads (GE Healthcare RPNQ0009) were incubated with biotinylated HSA for 5 hours. The beads were washed with buffer to remove unbound HSA. […] After 20 hours of gentle rocking at room temperature the plates were centrifuged and counted on a TopCounter.

Chain of human serum albumin (HSA) (P02768 25-609): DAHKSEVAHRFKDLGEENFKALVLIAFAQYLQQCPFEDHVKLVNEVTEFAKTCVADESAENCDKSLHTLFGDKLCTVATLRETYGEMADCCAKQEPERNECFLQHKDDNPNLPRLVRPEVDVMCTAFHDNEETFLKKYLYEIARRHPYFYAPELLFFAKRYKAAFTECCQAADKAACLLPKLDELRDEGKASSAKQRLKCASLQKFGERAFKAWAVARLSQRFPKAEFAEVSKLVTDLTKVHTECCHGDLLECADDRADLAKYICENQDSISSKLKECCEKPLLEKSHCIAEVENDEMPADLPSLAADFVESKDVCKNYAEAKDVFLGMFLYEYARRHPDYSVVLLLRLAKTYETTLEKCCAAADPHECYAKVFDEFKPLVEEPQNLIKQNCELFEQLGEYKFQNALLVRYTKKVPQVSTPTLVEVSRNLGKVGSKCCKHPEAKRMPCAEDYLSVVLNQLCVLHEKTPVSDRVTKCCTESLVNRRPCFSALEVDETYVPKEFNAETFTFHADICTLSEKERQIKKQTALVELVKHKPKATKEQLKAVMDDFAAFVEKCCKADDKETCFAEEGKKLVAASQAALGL

EC50 [nM] | Structure (SMILES)
1 to 100 | CC[C@H](C)[C@H](NC(=O)[C@H](Cc1ccccc1)NC(=O)[C@H](CCC(=O)O)NC(=O)[C@H](CCCNC(=N)N)NC(=O)[C@H](C)NC(=O)[C@H](C)NC(=O)[C@H](CCC(N)=O)NC(=O)[C@H](CCC(=O)O)NC(=O)[C@H](CCC(=O)O)NC(=O)[C@H](CC(C)C)NC(=O)[C@H](Cc1ccc(O)cc1)NC(=O)[C@H](CO)NC(=O)[C@H](CO)NC(=O)[C@@H](NC(=O)[C@H](CC(=O)O)NC(=O)[C@H](CO)NC(=O)[C@@H](NC(=O)[C@H](Cc1ccccc1)NC(=O)[C@@H](NC(=O)CNC(=O)[C@H](CCC(=O)O)NC(=O)[C@H](C)NC(=O)CCc1c[nH]cn1)[C@@H](C)O)[C@@H](C)O)C(C)C)C(=O)N[C@@H](C)C(=O)N[C@@H](Cc1c[nH]c2ccccc12)C(=O)N[C@@H](CC(C)C)C(=O)N[C@H](C(=O)N[C@@H](CCCNC(=N)N)C(=O)NCC(=O)N[C@@H](CCCNC(=N)N)C(=O)NCC(=O)N[C@@H](CCCCNC(=O)COCCOCCNC(=O)CC[C@H](NC(=O)CC[C@H](NC(=O)CCCCCCCCCCCNC(=O)CCCS(=O)(=O)NC(=O)CCCCCCCCCCCCCCCc1nnn[nH]1)C(=O)O)C(=O)O)C(N)=O)C(C)C [Example 67, [ImPr^7,Arg^26,34,Glu^22]GLP-1-(7-37)Lys[2-(2-[2-((S)-4-((S)-4-(12-[4-(16-1H-tetrazol-5-ylhexadecanoylsulfamoyl)butyrylamino]dodecanoylamino)-4-carboxybutyrylamino)-4-carboxybutyrylamino)ethoxy]ethoxy)acetyl]-amid] (Desaminohistidyl-AEGTFTSDVSSYLEEQAAREFIAWLVRGRGK([AEEA-γGlu-γGlu-12Ado-X1])-NH2)
300 to 800 | CC[C@H](C)[C@H](NC(=O)[C@H](Cc1ccccc1)NC(=O)[C@H](CCC(=O)O)NC(=O)[C@H](CCCNC(=N)N)NC(=O)[C@H](C)NC(=O)[C@H](C)NC(=O)[C@H](CCC(N)=O)NC(=O)[C@H](CCC(=O)O)NC(=O)[C@H](CCC(=O)O)NC(=O)[C@H](CC(C)C)NC(=O)[C@H](Cc1ccc(O)cc1)NC(=O)[C@H](CO)NC(=O)[C@H](CO)NC(=O)[C@@H](NC(=O)[C@H](CC(=O)O)NC(=O)[C@H](CO)NC(=O)[C@@H](NC(=O)[C@H](Cc1ccccc1)NC(=O)[C@@H](NC(=O)CNC(=O)[C@H](CCC(=O)O)NC(=O)C(C)(C)NC(=O)[C@@H](N)Cc1c[nH]cn1)[C@@H](C)O)[C@@H](C)O)C(C)C)C(=O)N[C@@H](C)C(=O)N[C@@H](Cc1c[nH]c2ccccc12)C(=O)N[C@@H](CC(C)C)C(=O)N[C@H](C(=O)N[C@@H](CCCNC(=N)N)C(=O)NCC(=O)N[C@@H](CCCNC(=N)N)C(=O)N[C@@H](CCCCNC(=O)COCCOCCNC(=O)COCCOCCNC(=O)C[C@H](NC(=O)C1CCN(C(=O)CCCCCCCCCCCCCCCCCCC(=O)O)CC1)C(=O)O)C(N)=O)C(C)C [Example 4, N-epsilon37{2-[2-(2-{2-[2-((S)-3-carboxy-3-{[1-(19-carboxynonadecanoyl)piperidine-4-carbonyl]amino}propionylamino)ethoxy]ethoxy}acetylamino)ethoxy]ethoxy}acetyl [Aib8,Glu22,Arg26,Arg34,Lys37]GLP-1-(7-37)amide]
